Experimental data from paper PMC2702710 (The Journal of organic chemistry, 2009).

Key:
[1] = target: T1, Icmt (Homo sapiens, UniProt O60725); assay: Preliminary screen for Icmt substrate activity; type: biochemical
[2] = target: T1, Icmt; assay: Vapor diffusion assay; type: biochemical; details: for IC50: read-out: Human Icmt IC50, 25 μM AFC, 20 μM 14C-SAM, 30 min at 30°C
[3] = target: T1, Icmt; assay: Icmt scintillation proximity assay; type: biochemical; details: initial SPA screen, 50 μM
[4] = test system: cancer cells; details: cited from earlier work

T1 sequence (O60725 whole entry, the tested form may be a part): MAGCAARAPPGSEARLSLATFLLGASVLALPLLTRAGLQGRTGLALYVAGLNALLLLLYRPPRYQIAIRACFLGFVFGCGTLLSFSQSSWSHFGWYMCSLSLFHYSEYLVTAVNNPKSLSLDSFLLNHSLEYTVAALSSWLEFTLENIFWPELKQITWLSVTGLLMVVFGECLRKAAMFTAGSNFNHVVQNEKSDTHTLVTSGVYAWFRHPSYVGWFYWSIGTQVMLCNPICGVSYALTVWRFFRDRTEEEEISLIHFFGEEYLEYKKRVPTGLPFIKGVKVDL

CC(C)=CCC/C(C)=C/CC/C(C)=C/CSC[C@H](NC(=O)CCS(=O)(=O)c1ccccc1)C(=O)O [5l, N-3-(phenylsulfonyl)propanoyl-L-cysteine[S-(2E,6E)-3,7,11-trimethyldodeca-2,6,10-trienyl]-OH]
Icmt substrate activity [1]: more efficient Icmt substrates than the prototypical N-acetylfarnesylcysteine

CC(C)=CCC/C(C)=C/CC/C(C)=C/CSC[C@H](NC(=O)[C@]12CCC(CC1=O)C2(C)C)C(=O)O [4e, N-(1S)-7,7-dimethyl-2-oxobicyclo[2.2.1]heptane-1-carbonyl-L-cysteine[S-(2E,6E)-3,7,11-trimethyldodeca-2,6,10-trienyl]-OH]
IC50 ([2]; VDA): 15.6 µM

CC(C)=CCC/C(C)=C/CC/C(C)=C/CSC[C@H](NC(=O)Cc1cccc2ccccc12)C(=O)O [4g, N-1-napthylacetylcarbonyl-L-cysteine[S-(2E,6E)-3,7,11-trimethyldodeca-2,6,10-trienyl]-OH]
activity in the SPA [3]: inactive

CC(C)=CCC/C(C)=C/CC/C(C)=C/CSC[C@H](NC(=O)c1ccccc1-c1ccccc1)C(=O)O [4f, N-2-phenylbenzoyl-L-cysteine[S-(2E,6E)-3,7,11-trimethyldodeca-2,6,10-trienyl]-OH]
IC50 ([2]; VDA): 12.1 µM

CC(C)=CCC/C(C)=C/CC/C(C)=C/CSC[C@H](NC(=O)C[C@H]1C[C@H]2CCC1C2)C(=O)O [4c, N-2-((2R,4S)-bicyclo[2.2.1]heptan-2-yl)acetyl-L-cysteine[S-(2E,6E)-3,7,11-trimethyldodeca-2,6,10-trienyl]-OH]
activity in the SPA [3]: inactive

CCCCCC12CCC(C(=O)N[C@@H](CSC/C=C(\C)CC/C=C(\C)CCC=C(C)C)C(=O)O)(CC1)CC2 [4d, N-4-pentylbicyclo[2.2.2]octane-1-carbonyl-L-cysteine[S-(2E,6E)-3,7,11-trimethyldodeca-2,6,10-trienyl]-OH]
IC50 ([2]; VDA): 16.7 µM

N-2-(aminophenyl)benzoyl-L-cysteine[S-(2E,6E)-3,7,11-trimethyldodeca-2,6,10-trienyl]-OH [5h]
Icmt inhibitory potency (in words) [2]: potent analog

CC(C)=CCC(=CCSC[C@H](NC(=O)c1ccccc1Oc1ccccc1)C(=O)O)CCc1ccc(-c2ccccc2)cc1 [compound 7, N-2-Phenoxybenzoyl-S-3-(3-methyl-but-2-enyl)-5-(4-biphenyl)pent-2-enyl-L-cysteine]
Icmt substrate activity [1]: no substrate activity

CC(C)=CCC/C(C)=C/CC/C(C)=C/CSC[C@H](NC(=O)c1ccccc1Oc1ccccc1)C(=O)O [5e, N-(2-oxyphenyl)benzoyl-L-cysteine[S-(2E,6E)-3,7,11-trimethyldodeca-2,6,10-trienyl]-OH]
inhibition of Icmt (methylation of AFC) ([2]; VDA, at a concentration of 10 μM): ~80% | IC50 ([2]; VDA): 4.3 µM

CC(C)=CCC/C(C)=C/CC/C(C)=C/CSC[C@H](NC(=O)CC12CC3CC(CC(C3)C1)C2)C(=O)O [4a, N-1-adamantylacetylcarbonyl-L-cysteine[S-(2E,6E)-3,7,11-trimethyldodeca-2,6,10-trienyl]-OH]
IC50 ([2]; VDA): 18.8 µM

CCCCCCCCn1cc(CC(N)=O)c2cc(-c3cccc(C)c3)ccc21 [cysmethynil]
activity against cancer cells [4]: exhibits activity against cancer cells

CC(C)=CCC/C(C)=C/CC/C(C)=C/CSC[C@H](NC(=O)CN1C(=O)OC[C@@H]1c1ccccc1)C(=O)O [5f, N-2-((S)-4-phenyl-2-oxo-oxazolidin-3-yl)acetyl-L-cysteine[S-(2E,6E)-3,7,11-trimethyldodeca-2,6,10-trienyl]-OH]
Icmt substrate activity [1]: more efficient Icmt substrates than the prototypical N-acetylfarnesylcysteine

CCCCCCCCC(=O)N[C@@H](CSC/C=C(\C)CC/C=C(\C)CCC=C(C)C)C(=O)O [4i, N-octylcarbonyl-L-cysteine[S-(2E,6E)-3,7,11-trimethyldodeca-2,6,10-trienyl]-OH]
activity in the SPA [3]: inactive

CC(C)=CCC/C(C)=C/CC/C(C)=C/CSC[C@H](NC(=O)CO[C@@H]1C[C@H](C)CC[C@H]1C(C)C)C(=O)O [4h, N-2-((1R,2S,5R)-2-isopropyl-5-methylcyclohexyloxy)acetyl-L-cysteine[S-(2E,6E)-3,7,11-trimethyldodeca-2,6,10-trienyl]-OH]
IC50 ([2]; VDA): 22.9 µM

CC(C)=CCC/C(C)=C/CC/C(C)=C/CSC[C@H](NC(=O)C12CC3CC(CC1C3)C2)C(=O)O [4b, N-3-noradamantanecarbonyl-L-cysteine[S-(2E,6E)-3,7,11-trimethyldodeca-2,6,10-trienyl]-OH]
IC50 ([2]; VDA): 16.7 µM
